Test results as given in paper PMC9408991, “Antitumor Effects of a New Retinoate of the Fungal Cytotoxin Illudin M in Brain Tumor Models” (International Journal of Molecular Sciences, 2022).

Experiments:
[1] = system: non-neural cancer cell lines; assay: MTT assay, summary over non-neural cancer cell lines; assay type: cell-based, human; conditions: with the exception of MCF-7^+Topo
Method: Non-GBM cells (5 × 10^4 cells/mL, 100 µL/well) were grown in 96-well plates for 24 h. Then, they were treated with various concentrations of the test compounds or vehicle (DMSO, or EtOH) for 72 h at 37 °C. After the addition of 12.5 µL of a 0.5% MTT solution in PBS, the cells were incubated for 3 h at 37 °C so that the water-soluble MTT could be converted to formazan crystals. Then, the plates were centrifuged (300× g, 5 min, 4 °C), the medium withdrawn, and the formazan dissolved in 25 µL of DMSO containing 10% sodium dodecylsulfate (SDS) and 0.6% acetic acid for at least 2 h at 37 °C. In the case of the HL60 cells, after 2 h, the precipitate of formazan crystals was redissolved in a 10% solution of SDS in DMSO containing 0.6% acetic acid.

[2] = system: retinoid-responsive elements (RARE); assay: RA reporter assay, F9 RARE-lacZ reporter cells; assay type: cell-based; conditions: 0.3-5.0 µM, 20 h
Description: More typical of retinoic acid is its contribution to cell differentiation during vertebrate embryonic development by interacting with nuclear receptors, which bind to specific retinoid-responsive elements (RARE) within the promoters of subordinate genes, activating their transcription. To verify that retinoate 2 also binds to RARE, we used a reporter assay with F9 teratocarcinoma cells featuring a RARE located within the cis-acting regulatory sequences of the human retinoic acid receptor alpha gene and immediately upstream of the E. coli lacZ genes, which thus acquire retinoid responsivity. LacZ expression in cells treated with various concentrations of 2 was then quantitated by densitometric analysis of β-galactosidase activity visualized by X-Gal staining.
The F9 embryonal carcinoma cell line, stably transfected with the 1.8 kb promoter sequence of RARb2 coupled to the lacZ gene, was used to measure active retinoids. The assay is appropriate for detection of all-trans RA but is able to detect other retinoid isomers as well. The F9 reporter cells were maintained in 10% FCS containing DMEM in the presence of 400 ug/mL G418. A day before the assay, F9 cell were seeded onto 24-well plates (100,000 cell/well). The cells were than treated with various concentrations of 2. […]

[3] = Stability in cell medium (DMEM) by HPLC; assay type: physicochemical; conditions: for Detected compound 2 in medium / Detected free 1 in the sample of 2 / Detected free retinoic acid in the sample of 2: sample of 2 in DMEM
Method: The stability of compound 2 in medium (DMEM) was investigated for the indicated times (Table S1). For the preparation of the calibration samples, stock solutions of the test compounds (1 mg /mL) in MeCN were initially made. The sample was diluted to 0.2 mg/mL in a mixture of MeCN/H2O (4:1), whereof 20 µL were taken and injected into the column. For HPLC analysis, a Prontosil 120-5-C18 ace EPS 5 µm column was applied, and MeCN/H2O + 0.1 % glacial acetic acid was used as eluent. Chromatography was run from 7030 to 9010 within 3 […]
Table S1. Stability of compound 2 in medium.
Sample Detected Compounds (in µM)

[4] = system: embryonal neuronal cells; assay: Long-term development of embryonal neuronal cell cultures; assay type: cell-based, mouse; conditions: 1 µM, 3, 6 or 8 days
Method: NE-4C cells derived from the anterior brain vesicles of p53-deficient 9-day-old mouse embryos were maintained in Minimum Essential Medium (MEM; Sigma Aldrich, Taufkirchen, Germany) supplemented with 5% fetal calf serum (FCS; Invitrogen-Gibco, Carlsbad, CA, USA), 4 mM glutamine (Sigma-Aldrich, Taufkirchen, Germany) and 40 ug/mL gentamycin (Chinoin, Budapest, Hungary). For maintenance, subconfluent cultures were regularly split by trypsinization (0.05 w/v% trypsin in PBS) into poly-L-lysine-coated Petri dishes. Primary astrocytes were isolated from whole brains of neonatal (P0-P3) mice, as described earlier. In brief, meninges were removed, and the tissue pieces were subjected to enzymatic dissociation, using 0.05% w/v trypsin and 0.05% w/v DNase for 10 min at room temperature. The cells were plated onto poly-L-lysine coated plastic surfaces and grown in MEM supplemented with 10% fetal calf serum, 4 mM glutamine and 40 ug/mL gentamycin. Primary neuronal cultures were prepared from embryonic (E15–E16) mouse (CD1) forebrains, as described earlier. In brief, cell suspensions were prepared by mechanical dissociation over a nylon mesh with a pore diameter of 40–42 μm. The cells were seeded at 10^5 cells/cm^2 density onto PLL-coated surfaces. The cultures were maintained in MEM supplemented with 5% FCS, 4 mM glutamine, 40 µg/mL gentamicin and 2.5 μg/mL amphotericin B (Sigma). […]

[5] = system: NE-4C neural stem cells; assay: Neuronal differentiation of NE-4C neural stem cells (β-tubulin III staining); assay type: cell-based, mouse
Method: NE-4C cells and their differentiated progeny neurons can be immunohistochemically distinguished by the presence of β-tubulin III only in the latter (Figure 3).
Astroglia cells grown on poly-L-lysine-coated glass cover slips were fixed with 4% paraformaldehyde in PBS for 20 min at room temperature and then permeabilized with Triton X-100 (0.1% v/v in PBS; 5 min). Nonspecific antibodies were blocked by incubation with 3% FBS in PBS (room temperature, 1 h). α-GFAP antibody (rabbit, DAKO) was used in a dilution of 1:2000 and was visualized by anti-rabbit IgG Alexa 594 (1:1000). DAPI (4′,6-diamidino-2-phenylindole) was used for nuclei staining. Fluorescence images were captured manually on a Zeiss Axiovert 200 M microscope fitted with 20- to 60-fold zoom and a Zeiss AxioCam MRm digital camera. Further applied antibodies were tubulin III (Sigma T5076), used at a dilution of 1:1000, and Annexin V. Cy3.18 (Sigma A4963).

CC1=C(/C=C/C(C)=C/C=C/C(C)=C/C(=O)O[C@@H]2C3=C(C)C4(CC4)[C@@](C)(O)C(=O)C3=CC2(C)C)C(C)(C)CCC1 [Compound 2, illudin M retinoate]
fold less efficacious than 1 [1]: 100 fold | activation of F9 RARE-lacZ reporter cells (β-galactosidase, X-Gal staining) [2]: concentration-dependent activation | stability in cell medium ([3]; cell medium): high stability | Detected compound 2 in medium ([3]; 0 h): 3.92 µM | Detected free 1 in the sample of 2 ([3]; 0 h): < 0.01 µM | Detected free retinoic acid in the sample of 2 ([3]; 0 h): < 0.01 µM | Detected compound 2 in medium ([3]; 20 h): 3.98 µM | Detected free 1 in the sample of 2 ([3]; 20 h): < 0.01 µM | Detected free retinoic acid in the sample of 2 ([3]; 20 h): < 0.01 µM | Detected compound 2 in medium ([3]; 48 h): 3.85 µM | Detected free 1 in the sample of 2 ([3]; 48 h): < 0.01 µM | Detected free retinoic acid in the sample of 2 ([3]; 48 h): < 0.01 µM | Detected compound 2 in medium ([3]; 144 h): 3.94 µM | Detected free 1 in the sample of 2 ([3]; 144 h): < 0.01 µM | Detected free retinoic acid in the sample of 2 ([3]; 144 h): < 0.01 µM | development of neuronal cells [4]: developed normally | differentiation of NE-4C stem cells to neurons ([5]; 10 nM, β-tubulin III staining): did not elicit differentiation | neuronal differentiation of NE-4C neural stem cells ([5]; concentrations as high as 1 µM): did not induce neuronal differentiation
